Assay results reported in paper PMC10859961, “Ir(III) Half-Sandwich Photosensitizers with a π-Expansive Ligand for Efficient Anticancer Photodynamic Therapy” (Journal of Medicinal Chemistry, 2024).

Key:
[1] = 1O2 quantum yield determination with DPBF; details: acetonitrile; for 1O2 generation quantum yield (ϕΔ), DPBF: 470 nm blue light
Method: It was performed for complexes 1–8 in acetonitrile according to a relative procedure adapted from the literature[132]−[134] based on monitoring the oxidation of 1,3-diphenylisobenzofuran (DPBF, yellow) to 1,2-dibenzoylbenzene (colorless) photosensitized by the Ir(III) complexes. DPBF was used as an ^1O2 scavenger due to its fast reaction with this molecule. Fresh stock air-equilibrated solutions of photosensitizers (6.00 × 10^–6 M) and DPBF (1.50 × 10^–4 M) in acetonitrile were prepared. In a quartz cell, 1 mL of DPBF solution, 0.5 mL of complex solution, and 1.5 mL of acetonitrile were mixed to prepare a final solution with 5.00 × 10^–5 M DPBF and 1.00 × 10^–6 M complex. The final solutions were studied by recording UV–vis absorption spectra at room temperature in dark conditions (over a period of 6 min with time intervals of 2 min), under blue light irradiation (λexc = 470 nm, “Medusa” photoreactor) and under green light irradiation (λexc = 530 nm, “Medusa” photoreactor) for 5 s irradiation intervals during a total exposure period of 20 s. Absorption UV–vis spectra were recorded after every irradiation interval.
The consumption of DPBF probe was measured by monitoring its absorbance intensity decrease at 410 nm with irradiation time. ^1O2 generation quantum yield (ϕΔ) was calculated from eq 1 using Rose Bengal or [Ru(bpy)3]^2+ as reference for complexes with pbpz and pbpn ligands, respectively: [drawing 22] 1 where s and ref subscripts correspond to the complex and the reference, ϕΔ is the ^1O2 generation quantum yield (0.53 for Rose Bengal[135] and 0.56 for [Ru(bpy)3]Cl2[132] in degassed acetonitrile), S is the slope of the plots of the −ln(normalized absorbance) of DPBF at 410 nm vs the irradiation time, and F is the correction factor of absorption, which is given by F = 1–10^–O.D. (where O.D. is the optical density at 470 nm of solutions of complexes and references). The reproducibility of the results was confirmed by performing each experiment three times.
The stability of DPBF probe was studied in dark conditions and under light irradiation. In dark conditions and under green light irradiation the probe remains unaltered. However, under blue light irradiation, a photobleaching of DPBF was observed. Probe consumption was approximately 6.5% every 5 s. Therefore, a working interval of 20 s was chosen, where 75% of the probe remains stable. To calculate the ϕΔ, a correction factor was applied to the absorbance at 410 nm: a 6.5% of the previous value was added to each absorbance to counteract self-consumption of the probe (i.e., to the absorbance at 10 s, a 6.5% of the absorbance at 5 s was added).

[2] = 1O2 quantum yield determination with ABDA; details: H2O/DMSO (95:5); 470 nm blue light
Method: Fresh stock air-equilibrated solutions of photosensitizers 1–2 and 7–8 (1.00 × 10^–3 M) and ABDA (6.00 × 10^–4 M) in H2O/DMSO (95:5) were prepared. In a quartz cell, 0.50 mL of ABDA solution, 0.03 mL of complex solution, and 2.47 mL of H2O/DMSO (95:5) were mixed to prepare a final solution with 1.00 × 10^–4 M ABDA and 1.00 × 10^–5 M complex. The final solutions were studied by recording UV–vis absorption spectra at room temperature under blue light irradiation (λexc = 470 nm, “Medusa” photoreactor) for 30 s irradiation intervals during a total exposure period of 5 min. Absorption UV–vis spectra were recorded after every irradiation interval.
The consumption of ABDA probe was measured by monitoring its absorbance intensity decrease at 402 nm with irradiation time. ^1O2 generation quantum yield (ϕΔ) was calculated from eq 1 using Rose Bengal or [Ru(bpy)3]^2+ as reference. In this case, the ϕΔ values of the references in H2O/DMSO (95:5) are 0.76 for Rose Bengal[73] and 0.18 for [Ru(bpy)3]Cl2.[136] The reproducibility of the results was confirmed by performing each experiment three times.

[3] = tested on: porcine red blood cells (RBC); experiment: Hemolytic activity (hemoglobin release); assay type: cell-based; details: dark, 1 hour
Method: The hemolytic activities of the complexes were determined by measuring hemoglobin release from porcine red blood cells (RBC). First, fresh porcine blood commercially obtained was diluted to 5% v/v in PBS solution and washed three times with PBS by centrifugation at 1000 rcf for 10 min. Then, RBC suspension (150 μL) was mixed with 150 μL of each complex at concentrations ranging from 1 to 50 μM. A solution of 0.2% Triton X-100 in PBS was used as positive control to induce complete hemolysis. PBS alone was used as negative control. Samples were incubated at 37 °C for 1 h in an orbital shaker (50 rpm) and then centrifuged at 3500 rcf for 10 min. 80 μL aliquots of the supernatant were transferred to a 96-well plate and diluted with 80 μL of Milli-Q water. Hemolysis was evaluated by measuring the absorbance of the samples at 540 nm with a Synergy 4 plate reader (BioTek, Winooski). The percentage of hemolysis (H) was calculated using eq 4: [drawing 25] 4 where As is the absorbance for a given sample, An is the absorbance for the negative control, and Ap is the absorbance for the positive control. Each sample was tested in triplicate.

A549 cells [4] = experiment: Trypan blue exclusion test; assay type: cell-based, human; details: complexes at respective IC50 in the dark, 24 h
Method: To assess the cytotoxicity of the complexes, A549 cells were seeded in 96-well plates and treated with the complexes at the respective IC50,dark value. After 24 h of incubation, 10 μL of Trypan Blue (0.4% solution; Sigma) was added directly to the wells to avoid loss of dead cells in the treatment washes. After 10 min, images of the cells were captured using an Olympus CKX41 Microscope equipped with LCmicro software (Olympus).

A549 cells [5] = experiment: Lysosome damage (Acridine Orange, confocal microscopy); assay type: cell-based, human; details: 10 nM, blue light irradiation
Method: For confocal microscopy experiments, A549 cells were seeded onto glass-bottom 8-well chamber slides (Ibidi) (5 × 10^4 cells per well) and allowed to attach overnight. In each experiment, the cells were treated with the complexes at the indicated conditions and washed with PBS before staining. For mitochondria visualization, the cells were incubated with the fluorescent dye MitoTracker Red CMXRos (Molecular Probes) at 200 nM in serum-free culture medium for 30 min at 37 °C. Cell nuclei were counterstained in blue with Hoechst 33342 (Invitrogen) diluted 1:4000 in DMEM without phenol red. To analyze lysosomal damage, the cells were incubated with AO at 5 μM at 37 °C for 15 min. Before observation, the cells were washed twice with PBS and fresh growth medium without phenol red was added. Cell images were immediately obtained by a Nikon A1R confocal microscope and images were analyzed using the NIS-Elements AR (Nikon, Japan) and the Fiji/ImageJ software.

## Cc1c(C)c(C)[c-](C)c1C.[Cl][Ir]1[c]2cccc3c4nc5ccccc5nc4c4ccc[n+]1c4c23 [complex 1, [(η^5-C5Me5)IrCl(pbpz)]]
[1]
  1O2 generation quantum yield (ϕΔ), DPBF: 0.0780
[2]
  1O2 generation quantum yield (ϕΔ), ABDA: 0.1913

## Cc1c(C)c(C)[c-](C)c1C.F[B-](F)(F)F.c1ccc2cc3nc4c5ccc[n+]6c5c5[c](cccc5c4nc3cc2c1)[Ir]6[n+]1cc[nH]c1 [complex 4, [(η^5-C5Me5)Ir(Im)(pbpn)]BF4]
[3]; 1 μM
  Hemolytic activity: 0%
[3]; 5 μM
  Hemolytic activity: 0%
[3]; 10 μM
  Hemolytic activity: 0.5%
[3]; 25 μM
  Hemolytic activity: 6.7%
[1]
  1O2 generation quantum yield (ϕΔ), DPBF: 0.9894
[1]; λir = 470 nm
  Slope (S) of ‐ln(normalized Abs) vs time, photooxidation of DPBF: 0.0890
[1]; λir = 530 nm
  Slope (S) of ‐ln(normalized Abs) vs time, photooxidation of DPBF: 0.0058
A549 cells [4]
  proportion of cells with uptake of trypan blue dye: 54%
A549 cells [5]
  red fluorescent particles (lysosomes, AO staining): completely disappeared

## Cc1c(C)c(C)[c-](C)c1C.F[B-](F)(F)F.c1ccc2nc3c4ccc[n+]5c4c4[c](cccc4c3nc2c1)[Ir]5[n+]1ccn(CCN2CCCCC2)c1 [complex 5, [(η^5-C5Me5)Ir(Imepip)(pbpz)]BF4]
[1]
  1O2 generation quantum yield (ϕΔ), DPBF: 0.026

## Cc1c(C)c(C)[c-](C)c1C.F[B-](F)(F)F.c1ccc2cc3nc4c5ccc[n+]6c5c5[c](cccc5c4nc3cc2c1)[Ir]6[n+]1ccn(CCN2CCCCC2)c1 [complex 6, [(η^5-C5Me5) Ir(Imepip)(pbpn)]BF4]
[3]; 1 μM
  Hemolytic activity: 0%
[3]; 5 μM
  Hemolytic activity: 0%
[3]; 10 μM
  Hemolytic activity: 1.0%
[3]; 25 μM
  Hemolytic activity: 10.7%
[1]
  1O2 generation quantum yield (ϕΔ), DPBF: 0.8118
[1]; λir = 470 nm
  Slope (S) of ‐ln(normalized Abs) vs time, photooxidation of DPBF: 0.0657
[1]; λir = 530 nm
  Slope (S) of ‐ln(normalized Abs) vs time, photooxidation of DPBF: 0.0069
A549 cells [4]
  proportion of cells with uptake of trypan blue dye: 53%
A549 cells [5]
  red fluorescent particles (lysosomes, AO staining): completely disappeared

## Cc1c(C)c(C)[c-](C)c1C.F[B-](F)(F)F.c1ccc(Cn2cc[n+]([Ir]3[c]4cccc5c6nc7ccccc7nc6c6ccc[n+]3c6c45)c2)cc1 [complex 7, [(η^5-C5Me5)Ir(bzIm)(pbpz)]BF4]
[1]
  1O2 generation quantum yield (ϕΔ), DPBF: 0.0204
[2]
  1O2 generation quantum yield (ϕΔ), ABDA: 0.0526

## Cc1c(C)c(C)[c-](C)c1C.F[B-](F)(F)F.c1ccc(Cn2cc[n+]([Ir]3[c]4cccc5c6nc7cc8ccccc8cc7nc6c6ccc[n+]3c6c45)c2)cc1 [complex 8, [(η^5-C5Me5)Ir(bzIm)(pbpn)]BF4]
[3]; 1 μM
  Hemolytic activity: 0.2%
[3]; 5 μM
  Hemolytic activity: 1.0%
[3]; 10 μM
  Hemolytic activity: 3.2%
[3]; 25 μM
  Hemolytic activity: 16.3%
[1]
  1O2 generation quantum yield (ϕΔ), DPBF: 0.99
[1]; λir = 470 nm
  Slope (S) of ‐ln(normalized Abs) vs time, photooxidation of DPBF: 0.0771
[1]; λir = 530 nm
  Slope (S) of ‐ln(normalized Abs) vs time, photooxidation of DPBF: 0.0061
[2]
  1O2 generation quantum yield (ϕΔ), ABDA: 0.4986
A549 cells [4]
  proportion of cells with uptake of trypan blue dye: 23%
A549 cells [5]
  red fluorescent particles (lysosomes, AO staining): completely disappeared
